From PubChem BioAssay AID330 (DTP/NCI, 2004)
“And” between values parts separate entries of the source, which are not always exact repeats. Identical values can stand only once. Inconclusive results and toxic doses are left out. The calls were made as follows: active = survival T/C of 150% or more; inactive = T/C below 125% in these data.

Tested on: P388 leukemia ip, CD2F1 mice, survival T/C
Test: NCI In Vivo Anticancer Drug Screen. Data for tumor model P388 Leukemia (intraperitoneal) in CD2F1 (CDF1) mice
Details: endpoint: median survival time, higher = longer survival
Summary of the method: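 Mice carrying the transplanted tumor received test compound or vehicle. Survival was recorded in each group, and the value is the treated-group measurement divided by that of the vehicle-treated control group.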

[1] = dose: 100.0 mg/kg/injection, schedule: Q04DX003 (ip), vehicle: saline
[2] = dose: 200.0 mg/kg/injection, schedule: Q04DX003 (ip), vehicle: saline
[3] = dose: 400.0 mg/kg/injection, schedule: Q04DX003 (ip), vehicle: saline
[4] = dose: 50.0 mg/kg/injection, schedule: Q01DX005 (ip), vehicle: saline with Tween-80
[5] = dose: 100.0 mg/kg/injection, schedule: Q01DX005 (ip), vehicle: saline with Tween-80
[6] = dose: 200.0 mg/kg/injection, schedule: Q01DX005 (ip), vehicle: saline with Tween-80
[7] = dose: 100.0 mg/kg/injection, schedule: Q01DX009 (ip), vehicle: saline

Measured: T/C

COc1ccc(/C=C(\C(C)=O)C(=O)CCN(C)C)cc1
inactive: dose: 50.0 mg/kg/injection, schedule: Q01DX005 (ip), vehicle: saline 95 % of control | dose: 100.0 mg/kg/injection, schedule: Q01DX005 (ip), vehicle: saline 105 % of control | dose: 200.0 mg/kg/injection, schedule: Q01DX005 (ip), vehicle: saline 115 % of control

CCCCCCCCCCCC#N
inactive: [1] 108 % of control | [2] 104 % of control | [3] 116 % of control

O=C(C1CCCCC1)C1CCCCC1CC1CCCCC1 (stereo not given)
inactive: [4] 102 % of control | [5] 107 % of control | [6] 107 % of control

C[CH2][Ge]([Cl])([CH2]C)[c]1cc[c]([Ge]([Cl])([CH2]C)[CH2]C)cc1
inactive: dose: 50.0 mg/kg/injection, schedule: Q01DX005 (ip), vehicle: Klucel (hydroxypropylcellulose) (HPC) 98 % of control | dose: 100.0 mg/kg/injection, schedule: Q01DX005 (ip), vehicle: Klucel (hydroxypropylcellulose) (HPC) 96 % of control | dose: 200.0 mg/kg/injection, schedule: Q01DX005 (ip), vehicle: Klucel (hydroxypropylcellulose) (HPC) 99 % of control

NC(=O)C1CCCN1C(=O)C1CCCN(Cc2ccc(CN3CCCC(C(=O)N4CCCC4C(N)=O)C3)cc2)C1 (stereo not given)
inactive: dose: 60.0 mg/kg/injection, schedule: Q01DX005 (ip), vehicle: saline 106 % of control | dose: 120.0 mg/kg/injection, schedule: Q01DX005 (ip), vehicle: saline 97 % of control

O=C1c2ccccc2OCC1/C=N/O (stereo not given)
inactive: dose: 60.0 mg/kg/injection, schedule: Q01DX005 (ip), vehicle: saline with Tween-80 95 % of control | dose: 120.0 mg/kg/injection, schedule: Q01DX005 (ip), vehicle: saline with Tween-80 103 % of control | dose: 240.0 mg/kg/injection, schedule: Q01DX005 (ip), vehicle: saline with Tween-80 101 % of control

CN(C)c1cccc2c(S(=O)(=O)Cl)cccc12
inactive: dose: 25.0 mg/kg/injection, schedule: Q04DX003 (ip), vehicle: saline with Tween-80 106 % of control | dose: 50.0 mg/kg/injection, schedule: Q04DX003 (ip), vehicle: saline with Tween-80 114 % of control | dose: 100.0 mg/kg/injection, schedule: Q04DX003 (ip), vehicle: saline with Tween-80 110 % of control | dose: 200.0 mg/kg/injection, schedule: Q04DX003 (ip), vehicle: saline with Tween-80 124 % of control

CCCCOC(=O)CC(C(=O)OCCCC)C(C(=O)OCCCC)P(=O)(OCCCC)OCCCC (stereo not given)
inactive: [4] 99 % of control | [5] 100 % of control | [6] 98 % of control

Oc1ccccc1C(Nc1nc2ccccc2s1)c1ccc2cccnc2c1O (stereo not given)
inactive: [7] 90 % of control | [1] 95 % of control | dose: 200.0 mg/kg/injection, schedule: Q01DX009 (ip), vehicle: saline 100 % of control | [2] 91 % of control | dose: 400.0 mg/kg/injection, schedule: Q01DX009 (ip), vehicle: saline 90 % of control | [3] 91 % of control

CS(C)=Nc1ccc(Cl)cc1
inactive: dose: 100.0 mg/kg/injection, schedule: Q01DX001 (ip), vehicle: saline 109 % of control

C(/CSC/C=N/Nc1ccccc1)=N\Nc1ccccc1
inactive: dose: 50.0 mg/kg/injection, schedule: Q01DX009 (ip), vehicle: saline 103 % of control | [7] 103 % of control

COc1ccc(C(=O)C(C)Br)c(OCc2ccccc2)c1OC (stereo not given)
inactive: dose: 50.0 mg/kg/injection, schedule: Q01DX009 (ip), vehicle: saline with Tween-80 107 % of control | dose: 100.0 mg/kg/injection, schedule: Q01DX009 (ip), vehicle: saline with Tween-80 105 % of control and 109 % of control | dose: 200.0 mg/kg/injection, schedule: Q01DX009 (ip), vehicle: saline with Tween-80 114 % of control and 118 % of control | dose: 400.0 mg/kg/injection, schedule: Q01DX009 (ip), vehicle: saline with Tween-80 110 % of control and 122 % of control

Cc1oc2c(C)c3oc(=O)cc(C)c3cc2c1CO
inactive: dose: 100.0 mg/kg/injection, schedule: Q05DX002 (ip), vehicle: Klucel (hydroxypropylcellulose) (HPC) 92 % of control | dose: 200.0 mg/kg/injection, schedule: Q05DX002 (ip), vehicle: Klucel (hydroxypropylcellulose) (HPC) 97 % of control | dose: 400.0 mg/kg/injection, schedule: Q05DX002 (ip), vehicle: Klucel (hydroxypropylcellulose) (HPC) 95 % of control
